Read-outs that look alike come from different tables or passages of the source.

The values below come from paper PMC6199744, “Development of Chemical Proteomics for the Folateome and Analysis of the Kinetoplastid Folateome” (ACS Infectious Diseases, 2018).

Assay [1] concerns phenylalanine-4-hydroxylase (PAH). The assay can be described thus: Multitargeted bead mixture competition. It counts as binding, L. major. The note with it: for fold change: protein LMJF.28.1280 PHENYLALANINE-4-HYDROXYLASE, vehicle control = 1; for fold change vs vehicle control: protein LMJF.28.1280 PHENYLALANINE-4-HYDROXYLASE,PHENYLALANINE-4-HYDROXYLASE, PUTATIVE; for binding and competition to phenylalanine-4-hydroxylase (PAH): bead mixture, L. major lysate.

In assay [2] the target is T1, HeLa cell extract proteins (Homo sapiens, UniProt Q96BY9).
T1 construct: endogenous in cells; host or cells: HeLa cell extract
T1 sequence (Q96BY9 31-339): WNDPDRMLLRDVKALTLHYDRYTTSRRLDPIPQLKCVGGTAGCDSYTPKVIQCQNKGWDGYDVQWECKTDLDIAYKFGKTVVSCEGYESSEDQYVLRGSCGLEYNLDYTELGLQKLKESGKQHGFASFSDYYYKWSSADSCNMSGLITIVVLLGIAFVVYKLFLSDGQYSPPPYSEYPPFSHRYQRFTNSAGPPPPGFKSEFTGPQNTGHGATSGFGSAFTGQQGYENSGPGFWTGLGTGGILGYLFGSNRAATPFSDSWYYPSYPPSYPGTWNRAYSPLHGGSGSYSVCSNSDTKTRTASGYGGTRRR
It counts as binding.

The target in assay [3] is T2, HeLa cell extract proteins (Homo sapiens, UniProt O14818).
T2 construct: endogenous in cells; host or cells: HeLa cell extract
T2 sequence (O14818 1-248): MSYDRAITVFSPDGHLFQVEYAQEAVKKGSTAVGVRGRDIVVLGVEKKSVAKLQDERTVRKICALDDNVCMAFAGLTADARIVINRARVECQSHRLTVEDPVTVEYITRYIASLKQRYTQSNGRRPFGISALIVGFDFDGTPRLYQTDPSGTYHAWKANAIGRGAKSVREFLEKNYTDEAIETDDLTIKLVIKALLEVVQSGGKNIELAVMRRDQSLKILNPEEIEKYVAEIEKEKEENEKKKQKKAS
It counts as binding.

The target in assay [4] is T3, HeLa cell extract proteins (Homo sapiens, UniProt Q96LA8).
T3 construct: endogenous in cells; host or cells: HeLa cell extract
It is filed as binding.

The target in assay [5] is T4, HeLa cell extract proteins (Homo sapiens, UniProt Q9BT22).
T4 construct: endogenous in cells; host or cells: HeLa cell extract
T4 sequence (Q9BT22 1-464): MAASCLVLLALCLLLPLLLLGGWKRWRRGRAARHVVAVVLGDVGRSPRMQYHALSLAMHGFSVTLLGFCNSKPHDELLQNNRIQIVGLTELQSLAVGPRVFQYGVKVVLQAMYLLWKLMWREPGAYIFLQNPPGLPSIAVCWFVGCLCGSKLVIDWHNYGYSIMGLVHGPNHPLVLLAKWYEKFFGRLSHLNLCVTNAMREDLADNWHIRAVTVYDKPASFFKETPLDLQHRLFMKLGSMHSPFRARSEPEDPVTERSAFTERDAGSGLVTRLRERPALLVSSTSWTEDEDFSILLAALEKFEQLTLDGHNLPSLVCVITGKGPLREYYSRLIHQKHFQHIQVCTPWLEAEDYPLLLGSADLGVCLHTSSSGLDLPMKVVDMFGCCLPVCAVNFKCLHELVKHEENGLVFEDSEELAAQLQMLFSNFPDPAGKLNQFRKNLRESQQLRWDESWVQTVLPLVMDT
It counts as binding.

Assay [6] addresses T5, HeLa cell extract proteins (Homo sapiens, UniProt Q709F0).
T5 construct: endogenous in cells; host or cells: HeLa cell extract
T5 sequence (Q709F0 1-780): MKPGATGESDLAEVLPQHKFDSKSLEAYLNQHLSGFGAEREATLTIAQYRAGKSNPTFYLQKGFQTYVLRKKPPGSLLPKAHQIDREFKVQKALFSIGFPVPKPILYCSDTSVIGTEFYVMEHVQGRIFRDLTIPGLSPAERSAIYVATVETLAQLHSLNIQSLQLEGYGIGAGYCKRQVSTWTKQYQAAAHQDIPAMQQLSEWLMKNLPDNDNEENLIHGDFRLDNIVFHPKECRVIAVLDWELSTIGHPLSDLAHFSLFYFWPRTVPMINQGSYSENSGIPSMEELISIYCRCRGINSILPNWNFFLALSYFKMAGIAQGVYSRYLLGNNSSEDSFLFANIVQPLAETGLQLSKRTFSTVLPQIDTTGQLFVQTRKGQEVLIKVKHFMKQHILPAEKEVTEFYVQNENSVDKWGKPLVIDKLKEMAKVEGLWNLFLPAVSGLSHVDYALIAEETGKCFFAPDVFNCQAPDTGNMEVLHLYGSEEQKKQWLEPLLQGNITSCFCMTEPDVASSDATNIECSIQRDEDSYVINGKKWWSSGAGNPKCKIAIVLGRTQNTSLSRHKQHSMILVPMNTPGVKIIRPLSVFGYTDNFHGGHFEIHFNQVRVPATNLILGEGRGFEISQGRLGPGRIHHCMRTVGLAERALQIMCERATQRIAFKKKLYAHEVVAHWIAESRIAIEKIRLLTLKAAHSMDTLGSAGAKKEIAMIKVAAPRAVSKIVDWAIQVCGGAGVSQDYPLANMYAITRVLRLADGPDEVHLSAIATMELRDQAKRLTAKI
It counts as binding.

The target of assay [7] is T6, HeLa cell extract proteins (Homo sapiens, UniProt Q9UI12).
T6 construct: endogenous in cells; host or cells: HeLa cell extract
It counts as binding.

Assay [8] has as its target T7, HeLa cell extract proteins (Homo sapiens, UniProt Q9ULX6).
T7 construct: endogenous in cells; host or cells: HeLa cell extract
T7 sequence (Q9ULX6 1-646): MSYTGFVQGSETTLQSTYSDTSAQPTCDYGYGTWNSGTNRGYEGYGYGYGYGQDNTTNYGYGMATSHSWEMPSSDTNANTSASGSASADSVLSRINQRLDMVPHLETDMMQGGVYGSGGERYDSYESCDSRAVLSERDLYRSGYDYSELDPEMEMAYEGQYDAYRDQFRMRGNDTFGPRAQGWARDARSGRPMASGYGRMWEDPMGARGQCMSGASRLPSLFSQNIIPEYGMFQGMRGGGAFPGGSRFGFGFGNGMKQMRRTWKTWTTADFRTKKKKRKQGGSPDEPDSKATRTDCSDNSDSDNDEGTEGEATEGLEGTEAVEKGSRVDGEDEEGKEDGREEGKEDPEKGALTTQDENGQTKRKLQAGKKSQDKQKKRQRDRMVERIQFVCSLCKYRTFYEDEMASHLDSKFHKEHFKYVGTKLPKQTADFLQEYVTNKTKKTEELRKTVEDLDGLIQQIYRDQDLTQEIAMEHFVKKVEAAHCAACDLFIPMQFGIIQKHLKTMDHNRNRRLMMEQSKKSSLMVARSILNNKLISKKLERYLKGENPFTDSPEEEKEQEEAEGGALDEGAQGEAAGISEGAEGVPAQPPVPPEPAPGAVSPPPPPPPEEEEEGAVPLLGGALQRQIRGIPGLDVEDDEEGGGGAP
It is filed as binding.

Assay [9] concerns methylthioadenosine phosphorylase (LmjF.05.0830). The experiment in a line: Multitargeted bead mixture competition. The note with it: for fold change vs vehicle control: protein LMJF.05.0830 METHYLTHIOADENOSINE PHOSPHORYLASE, PUTATIVE
It counts as binding, Leishmania.

[10] abbreviates: HeLa, protein TMEM66 (TRANSMEMBRANE PROTEIN 66 PRECURSOR).
The mark [11] stands for this setting: HeLa, protein PRMT6 (PROTEIN ARGININE N-METHYLTRANSFERASE 6).

T3 sequence (Q96LA8 whole entry): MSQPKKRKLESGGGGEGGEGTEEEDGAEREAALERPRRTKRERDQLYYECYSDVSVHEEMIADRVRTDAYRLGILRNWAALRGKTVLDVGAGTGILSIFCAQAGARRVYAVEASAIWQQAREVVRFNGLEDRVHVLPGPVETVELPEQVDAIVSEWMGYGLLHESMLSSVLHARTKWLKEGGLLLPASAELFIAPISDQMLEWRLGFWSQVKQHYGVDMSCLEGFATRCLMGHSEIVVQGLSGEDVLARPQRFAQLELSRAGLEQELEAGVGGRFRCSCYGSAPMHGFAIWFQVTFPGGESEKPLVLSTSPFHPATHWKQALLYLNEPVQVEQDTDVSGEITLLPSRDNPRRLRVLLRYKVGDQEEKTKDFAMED
T6 sequence (Q9UI12 whole entry): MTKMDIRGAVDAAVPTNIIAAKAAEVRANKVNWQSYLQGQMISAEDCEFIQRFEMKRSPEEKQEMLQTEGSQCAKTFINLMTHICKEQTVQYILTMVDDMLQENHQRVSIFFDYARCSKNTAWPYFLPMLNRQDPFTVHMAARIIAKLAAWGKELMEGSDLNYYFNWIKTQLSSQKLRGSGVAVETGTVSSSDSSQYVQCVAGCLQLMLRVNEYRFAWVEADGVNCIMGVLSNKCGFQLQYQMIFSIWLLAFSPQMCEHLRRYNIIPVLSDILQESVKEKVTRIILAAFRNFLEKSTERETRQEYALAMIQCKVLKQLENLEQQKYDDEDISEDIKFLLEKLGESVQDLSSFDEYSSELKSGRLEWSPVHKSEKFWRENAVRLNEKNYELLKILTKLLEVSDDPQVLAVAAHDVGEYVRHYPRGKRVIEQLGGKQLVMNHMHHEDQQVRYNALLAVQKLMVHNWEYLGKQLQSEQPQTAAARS

Consider `CCCCCCOc1cccc(Cc2cnc(N)nc2N)c1` [compound 2], for which the fold change in assay [1] came to 1.1. Moreover, the “fold changes relative to vehicle control” value in assay [2] (protein TMEM66, HeLa) turned out to be 1.29; in assay [3] (protein PSMA7, HeLa) it was 1.3; in assay [4] (protein PRMT6, HeLa), 0.89; in assay [5] (captured protein ALG1, HeLa), 0.91; in assay [6] (captured protein ACAD11, HeLa) it was 0.77; in [7] (HeLa, protein ATP6V1H), 1.21. The “fold changes relative to vehicle control” value in [8] (captured protein AKAP8L, HeLa) turned out to be 1.03. Further, the “fold change vs vehicle control” value in [9] came out at 0.89.
As to `NCCOCCOCC(=O)Nc1nc2ncc(CNc3ccc(C(=O)NC(CCC(=O)O)C(=O)O)cc3)nc2c(=O)[nH]1` (stereo not drawn) [compound 6], the figures for the “fold change vs vehicle control” value in assay [1] and in assay [9] were 0.99 and 0.96, respectively. Also, the “fold changes relative to vehicle control” value in [2] (setting [10]) was determined as 0.85; in [3] (HeLa, captured protein PSMA7) it was 1.02; in assay [4] (setting [11]) it was 0.93; in assay [5] (HeLa, protein ALG1) it was 0.93; in [6] (HeLa, protein ACAD11) it was 0.95; in assay [7] (HeLa, protein ATP6V1H) it was 1.13. Further, the “fold changes relative to vehicle control” value in [8] (HeLa, protein AKAP8L) came to 1.01.
On to `CCCCCCOc1ccc(Cc2cnc(N)nc2N)cc1` [compound 1], for which the fold change in [1] was determined as 1.16. The “fold changes relative to vehicle control” value amounted to 1.16 in [2] (protein TMEM66, HeLa); 1.13 in [3] (protein PSMA7, HeLa); 1.01 in [4] (protein PRMT6, HeLa); 0.88 in [5] (captured protein ALG1, HeLa); 1.02 in assay [6] (captured protein ACAD11, HeLa); 1.24 in assay [7] (HeLa, protein ATP6V1H). Further, in assay [8] (captured protein AKAP8L, HeLa), the “fold changes relative to vehicle control” value is 0.79. Besides, in [9] (bead mixture, Leishmania lysates), the “binding to methylthioadenosine phosphorylase (LmjF.05.0830)” value is listed as “bound”. The “fold change vs vehicle control” value in [9] is listed as 0.19.
For `Nc1nc2c(c(=O)[nH]1)N(C=O)C(CNc1ccc(C(=O)N[C@@H](CCC(=O)O)C(=O)O)cc1)CN2` (stereo partly drawn) [LEU, leucovorin], the “fold change vs vehicle control” value in assay [1] is reported as 0.99; in assay [9] it was 0.96. Besides, the “fold changes relative to vehicle control” value in [2] (HeLa, protein TMEM66 (TRA[…] 66 PRECURSOR)) is 1.06; in assay [3] (HeLa, captured protein PSMA7), 1.08; in [4] (setting [11]), 1.17; in assay [5] (HeLa, protein ALG1), 0.85; in [6] (HeLa, protein ACAD11), 1.12; in assay [7] (HeLa, protein ATP6V1H) it was 1.04. Moreover, the “fold changes relative to vehicle control” value in assay [8] (HeLa, protein AKAP8L) is 1.01.
Take `NCCCNc1ccc(C(=O)NC(CCC(=O)O)C(=O)O)cc1` (stereo not drawn) [compound 7]: the “fold change vs vehicle control” value in assay [1] and in assay [9] was 1.02 in each case. Also, the “fold changes relative to vehicle control” value in [2] (setting [10]) was determined as 0.87; in assay [3] (HeLa, captured protein PSMA7), 0.93; in [4] (setting [11]), 1.01; in assay [5] (HeLa, protein ALG1), 0.99; in assay [6] (HeLa, protein ACAD11) it was 1.05; in assay [7] (HeLa, protein ATP6V1H), 1.01. Further, in assay [8] (HeLa, protein AKAP8L), the “fold changes relative to vehicle control” value amounted to 1.08.
In the case of `Nc1nc2[nH]cc(CCc3ccc(C(=O)N[C@@H](CCC(=O)O)C(=O)O)cc3)c2c(=O)[nH]1` [PTX, pemetrexed], in [1], the “binding and competition to phenylalanine-4-hydroxylase (PAH)” value is “binding and competition”. The results for the “fold change vs vehicle control” value in assay [1] and in assay [9] were 0.28 and 0.91, respectively. Further, the “fold changes relative to vehicle control” value was determined as 0.92 in [2]; 1.03 in [3]; 1.03 in [4]; 0.81 in [5]; 0.98 in [6]; 0.99 in assay [7]. Moreover, the “fold changes relative to vehicle control” value in [8] stood at 0.95.
With `Nc1nc2cccc(-c3ccccc3)c2n1Cc1ccc(Cl)c(Cl)c1` [compound 3], the “binding and competition to phenylalanine-4-hydroxylase (PAH)” value in [1] was “binding and competition”. Moreover, in [1], the fold change was 0.81. The “fold changes relative to vehicle control” value in assay [2] (protein TMEM66, HeLa) was 0.98; in assay [3] (protein PSMA7, HeLa) it was 1.07; in [4] (protein PRMT6, HeLa), 0.93; in assay [5] (captured protein ALG1, HeLa) it was 1.05; in assay [6] (captured protein ACAD11, HeLa), 1.07; in assay [7] (HeLa, protein ATP6V1H), 1.17. Besides, the “fold changes relative to vehicle control” value in assay [8] (captured protein AKAP8L, HeLa) stood at 0.92. Also, the “fold change vs vehicle control” value in assay [9] came out at 0.94.
